Results from patent US20030087906A1, “NITROGEN SUBSTITUTED BIARYL PURINE DERIVATIVES AS POTENT ANTIPROLIFERATIVE AGENTS” (priority 2001, published 2003).

Key:
MOLT-4 = experiment: NCI 60-cell line growth inhibition assay; format: cell-based; settings: Homo sapiens
UACC-62 = experiment: NCI 60-cell line growth inhibition assay; format: cell-based; settings: Homo sapiens
MCF7 = experiment: NCI 60-cell line growth inhibition assay; format: cell-based; settings: Homo sapiens
NCI/ADR-RES = experiment: NCI 60-cell line growth inhibition assay; format: cell-based; settings: Homo sapiens
EKVX = experiment: NCI 60-cell line growth inhibition assay; format: cell-based; settings: Homo sapiens
SF-268 = experiment: NCI 60-cell line growth inhibition assay; format: cell-based; settings: Homo sapiens
HS 578T = experiment: NCI 60-cell line growth inhibition assay; format: cell-based; settings: Homo sapiens
HOP-62 = experiment: NCI 60-cell line growth inhibition assay; format: cell-based; settings: Homo sapiens
OVCAR-5 = experiment: NCI 60-cell line growth inhibition assay; format: cell-based; settings: Homo sapiens
NCI-H322M = experiment: NCI 60-cell line growth inhibition assay; format: cell-based; settings: Homo sapiens
SF-295 = experiment: NCI 60-cell line growth inhibition assay; format: cell-based; settings: Homo sapiens
NCI-H460 = experiment: NCI 60-cell line growth inhibition assay; format: cell-based; settings: Homo sapiens
MALME-3M = experiment: NCI 60-cell line growth inhibition assay; format: cell-based; settings: Homo sapiens
COLO 205 = experiment: NCI 60-cell line growth inhibition assay; format: cell-based; settings: Homo sapiens
CAKI-1 = experiment: NCI 60-cell line growth inhibition assay; format: cell-based; settings: Homo sapiens
SK-MEL-5 = experiment: NCI 60-cell line growth inhibition assay; format: cell-based; settings: Homo sapiens
SK-OV-3 = experiment: NCI 60-cell line growth inhibition assay; format: cell-based; settings: Homo sapiens
DU-145 = experiment: NCI 60-cell line growth inhibition assay; format: cell-based; settings: Homo sapiens
HCT-15 = experiment: NCI 60-cell line growth inhibition assay; format: cell-based; settings: Homo sapiens
RXF 393 = experiment: NCI 60-cell line growth inhibition assay; format: cell-based; settings: Homo sapiens
SK-MEL-2 = experiment: NCI 60-cell line growth inhibition assay; format: cell-based; settings: Homo sapiens
T-47D = experiment: NCI 60-cell line growth inhibition assay; format: cell-based; settings: Homo sapiens, T47D
UO-31 = experiment: NCI 60-cell line growth inhibition assay; format: cell-based; settings: Homo sapiens
IGROV1 = experiment: NCI 60-cell line growth inhibition assay; format: cell-based; settings: Homo sapiens, IGROV-1
ACHN = experiment: NCI 60-cell line growth inhibition assay; format: cell-based; settings: Homo sapiens
PC-3 = experiment: NCI 60-cell line growth inhibition assay; format: cell-based; settings: Homo sapiens
SNB-19 = experiment: NCI 60-cell line growth inhibition assay; format: cell-based; settings: Homo sapiens
KM12 = experiment: NCI 60-cell line growth inhibition assay; format: cell-based; settings: Homo sapiens
SNB-75 = experiment: NCI 60-cell line growth inhibition assay; format: cell-based; settings: Homo sapiens
[1] = tested on: Tumor Cells in Hollow Fibers; experiment: NCI Hollow Fiber Assay (in vivo evaluation); settings: for IP Score: IP fibers; for SC score: SC fibers
MDA-MB-435 = experiment: NCI 60-cell line growth inhibition assay; format: cell-based; settings: Homo sapiens
CCRF-CEM = experiment: NCI 60-cell line growth inhibition assay; format: cell-based; settings: Homo sapiens
RPMI-8226 = experiment: NCI 60-cell line growth inhibition assay; format: cell-based; settings: Homo sapiens
MDA-N = experiment: NCI 60-cell line growth inhibition assay; format: cell-based; settings: Homo sapiens
BT-549 = experiment: NCI 60-cell line growth inhibition assay; format: cell-based; settings: Homo sapiens
NCI-H23 = experiment: NCI 60-cell line growth inhibition assay; format: cell-based; settings: Homo sapiens
HL-60(TB) = experiment: NCI 60-cell line growth inhibition assay; format: cell-based; settings: Homo sapiens; HL-60(TB) (Leukemia)
SN12C = experiment: NCI 60-cell line growth inhibition assay; format: cell-based; settings: Homo sapiens; SN12C (Renal)
OVCAR-8 = experiment: NCI 60-cell line growth inhibition assay; format: cell-based; settings: Homo sapiens; OVCAR-8 (Ovarian)
NCI-H522 = experiment: NCI 60-cell line growth inhibition assay; format: cell-based; settings: Homo sapiens; NCI-H522 (Non-Small Cell Lung)
TK-10 = experiment: NCI 60-cell line growth inhibition assay; format: cell-based; settings: Homo sapiens; TK-10 (Renal)

SMILES: CC[C@H](CO)Nc1nc(NCc2ccc(-c3ccccc3)cc2)c2ncn(C(C)C)c2n1 [Compound 73]
- GI50 (MOLT-4; Leukemia, MOLT-4): 320 nM
- GI50 (UACC-62; Melanoma, UACC-62): 300 nM
- GI50 (MCF7; Breast, MCF7): 160 nM
- GI50 (NCI/ADR-RES; Breast, NCI/ADR-RES): 400 nM
- GI50 (EKVX; Non-Small Cell Lung, EKVX): 250 nM
- GI50 (SF-268; CNS, SF-268): 160 nM
- GI50 (HS 578T; Breast, HS 578T): 100 nM
- GI50 (HOP-62; Non-Small Cell Lung, HOP-62): 60 nM
- GI50 (OVCAR-5; Ovarian, OVCAR-5): 250 nM
- GI50 (NCI-H322M; Non-Small Cell Lung, NCI-H322M): 160 nM
- GI50 (SF-295; CNS, SF-295): 250 nM
- GI50 (NCI-H460; Non-Small Cell Lung, NCI-H460): 400 nM
- GI50 (MALME-3M; Melanoma, MALME-3M): 270 nM
- GI50 (COLO 205; Colon, COLO 205): 280 nM
- GI50 (CAKI-1; Renal, CAKI-1): 1660 nM
- GI50 (SK-MEL-5; Melanoma, SK-MEL-5): 250 nM
- GI50 (SK-OV-3; Ovarian, SK-OV-3): 950 nM
- GI50 (DU-145; Prostate, DU-145): 7080 nM
- GI50 (HCT-15; Colon, HCT-15): 180 nM
- GI50 (RXF 393; Renal, RXF 393): 90 nM
- GI50 (SK-MEL-2; Melanoma, SK-MEL-2): 630 nM
- GI50 (T-47D; Breast, T-47D): 250 nM
- GI50 (UO-31; Renal, UO-31): 60 nM
- GI50 (IGROV1; Ovarian, IGROV1): 320 nM
- GI50 (ACHN; Renal, ACHN): 320 nM
- GI50 (PC-3; Prostate, PC-3): 350 nM
- GI50 (SNB-19; CNS, SNB-19): 430 nM
- GI50 (KM12; Colon, KM12): 130 nM
- GI50 (SNB-75; CNS, SNB-75): 20 nM
- IP Score [1]: 2
- SC score [1]: 0
- GI50 (MDA-MB-435; Breast, MDA-MB-435): 250 nM
- GI50 (CCRF-CEM; Leukemia, CCRF-CEM): 250 nM
- GI50 (RPMI-8226; Leukemia, RPMI-8226): 30 nM
- GI50 (MDA-N; Breast, MDA-N): 130 nM
- GI50 (BT-549; Breast, BT-549): 250 nM
- GI50 (NCI-H23; Non-Small Cell Lung, NCI-H23): 320 nM

SMILES: CC(C)n1cnc2c(NCc3ccc(-c4ccccn4)cc3)nc(N[C@H]3CC[C@H](N)CC3)nc21 [Compound 78]
- GI50 (MOLT-4; MOLT-4 (Leukemia)): < 10 nM
- GI50 (UACC-62; UACC-62 (Melanoma)): 30 nM
- GI50 (MCF7; MCF7 (Breast)): < 10 nM
- GI50 (NCI/ADR-RES; NCI/ADR-RES (Breast)): 14400 nM
- GI50 (EKVX; EKVX (Non-Small Cell Lung)): 50 nM
- GI50 (HL-60(TB)): < 10 nM
- GI50 (HOP-62; HOP-62 (Non-Small Cell Lung)): 20 nM
- GI50 (OVCAR-5; OVCAR-5 (Ovarian)): < 10 nM
- GI50 (SN12C): < 10 nM
- GI50 (NCI-H322M; NCI-H322M (Non-Small Cell Lung)): < 10 nM
- GI50 (SF-295; SF-295 (CNS)): 210 nM
- GI50 (NCI-H460; NCI-H460 (Non-Small Cell Lung)): 50 nM
- GI50 (MALME-3M; MALME-3M (Melanoma)): 10 nM
- GI50 (COLO 205; COLO 205 (Colon)): < 10 nM
- GI50 (CAKI-1; CAKI-1 (Renal)): 790 nM
- GI50 (SK-MEL-5; SK-MEL-5 (Melanoma)): 100 nM
- GI50 (SK-OV-3; SK-OV-3 (Ovarian)): 60 nM
- GI50 (DU-145; DU-145 (Prostate)): 60 nM
- GI50 (HCT-15; HCT-15 (Colon)): 1480 nM
- GI50 (OVCAR-8): 20 nM
- GI50 (RXF 393; RXF 393 (Renal)): < 10 nM
- GI50 (SK-MEL-2; SK-MEL-2 (Melanoma)): 20 nM
- GI50 (NCI-H522): < 10 nM
- GI50 (T-47D; T-47D (Breast)): 30 nM
- GI50 (UO-31; UO-31 (Renal)): 170 nM
- GI50 (IGROV1; IGROV1 (Ovarian)): < 10 nM
- GI50 (ACHN; ACHN (Renal)): 320 nM
- GI50 (PC-3; PC-3 (Prostate)): < 10 nM
- GI50 (SNB-19; SNB-19 (CNS)): < 10 nM
- GI50 (KM12; KM12 (Colon)): < 10 nM
- GI50 (SNB-75; SNB-75 (CNS)): < 10 nM
- Cell Types Killed [1]: OVCAR 3, SF29
- IP Score [1]: 34
- SC score [1]: 0
- GI50 (TK-10): 70 nM
- GI50 (RPMI-8226; RPMI-8226 (Leukemia)): < 10 nM
- GI50 (MDA-N; MDA-N (Breast)): < 10 nM
- GI50 (BT-549; BT-549 (Breast)): 40 nM
- GI50 (NCI-H23; NCI-H23 (Non-Small Cell Lung)): 10 nM

SMILES: CC(=O)N[C@H]1CC[C@H](Nc2nc(NCc3ccc(-c4ccccc4)nc3)c3ncn(C(C)C)c3n2)CC1 [Compound 87]
- GI50 (MOLT-4; MOLT-4 (Leukemia)): 20 nM
- GI50 (UACC-62; UACC-62 (Melanoma)): 45 nM
- GI50 (MCF7; MCF7 (Breast)): 40 nM
- GI50 (NCI/ADR-RES; NCI/ADR-RES (Breast)): 280 nM
- GI50 (HL-60(TB)): < 10 nM
- GI50 (SF-268; SF-268 (CNS)): < 10 nM
- GI50 (HS 578T; HS 578T (Breast)): < 10 nM
- GI50 (HOP-62; HOP-62 (Non-Small Cell Lung)): 10 nM
- GI50 (OVCAR-5; OVCAR-5 (Ovarian)): 51 nM
- GI50 (SN12C): < 10 nM
- GI50 (SF-295; SF-295 (CNS)): 47 nM
- GI50 (NCI-H460; NCI-H460 (Non-Small Cell Lung)): 220 nM
- GI50 (MALME-3M; MALME-3M (Melanoma)): 24 nM
- GI50 (COLO 205; COLO 205 (Colon)): < 10 nM
- GI50 (CAKI-1; CAKI-1 (Renal)): 64 nM
- GI50 (SK-MEL-5; SK-MEL-5 (Melanoma)): 28 nM
- GI50 (SK-OV-3; SK-OV-3 (Ovarian)): 350 nM
- GI50 (DU-145; DU-145 (Prostate)): 220 nM
- GI50 (HCT-15; HCT-15 (Colon)): 66 nM
- GI50 (RXF 393; RXF 393 (Renal)): 11 nM
- GI50 (SK-MEL-2; SK-MEL-2 (Melanoma)): 56 nM
- GI50 (NCI-H522): < 10 nM
- GI50 (T-47D; T-47D (Breast)): 48 nM
- GI50 (UO-31; UO-31 (Renal)): 16 nM
- GI50 (IGROV1; IGROV1 (Ovarian)): 52 nM
- GI50 (ACHN; ACHN (Renal)): 190 nM
- GI50 (PC-3; PC-3 (Prostate)): 18 nM
- GI50 (SNB-19; SNB-19 (CNS)): 38 nM
- GI50 (KM12; KM12 (Colon)): < 10 nM
- GI50 (SNB-75; SNB-75 (CNS)): 12 nM
- IP Score [1]: 30
- SC score [1]: 2
- GI50 (MDA-MB-435; MDA-MB-435 (Breast)): < 10 nM
- GI50 (TK-10): 29 nM
- GI50 (CCRF-CEM; CCRF-CEM (Leukemia)): < 10 nM
- GI50 (RPMI-8226; RPMI-8226 (Leukemia)): < 10 nM
- GI50 (BT-549; BT-549 (Breast)): 20 nM
- GI50 (NCI-H23; NCI-H23 (Non-Small Cell Lung)): 22 nM
